Literature values in patent publication US20020072062A1, “Chloramphenicol biosynthetic pathway and gene cluster” (Diversa Corporation, priority 1999, published 2002).
Read-outs that look alike come from different tables or passages of the source.

Columns and labels:
[1] = tested on: Cm-sensitive Micrococcus luteus; conditions: against Cm-sensitive Micrococcus luteus; metabolite of Cm from S. lividans M252 pJV4 transformants
[2] = tested on: Streptomyces venezuelae ISP5230

Question: For `O=C(NC(COP(=O)(O)O)C(O)c1ccc([N+](=O)[O-])cc1)C(Cl)Cl` (stereo not drawn) [3′-O-phospho-Cm], which inhibitory activity [1] is on record?
Answer: negligible inhibitory activity

Question: Which sulfanilamide resistance ([2]; before replacement of chromosomal pabAB) does the source give for `Nc1ccc(S(N)(=O)=O)cc1` [sulfanilamide] here?
Answer: 25 micrograms mL-1

Question: What about the sulfanilamide resistance ([2]; chromosomal pabAB replaced with copy disrupted by apramycin resistance gene) of the same compound?
Answer: 5 micrograms mL-1
